Laboratory results published in PubChem BioAssay AID330 (DTP/NCI, 2004).
Where “and” joins values, the source holds several entries; their conditions need not be identical. Identical values can stand only once. Inconclusive results and toxic doses are left out. Rule for the calls: active = survival T/C of 150% or more; inactive = T/C below 125% in these data.

Tested on: P388 leukemia ip, CD2F1 mice, survival T/C
Assay: NCI In Vivo Anticancer Drug Screen. Data for tumor model P388 Leukemia (intraperitoneal) in CD2F1 (CDF1) mice
Settings: endpoint: median survival time, higher = longer survival
Outline: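 Mice carrying the transplanted tumor received test compound or vehicle. Survival was recorded in each group, and the value is the treated-group measurement divided by that of the vehicle-treated control group.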

[1] = dose: 50.0 mg/kg/injection, schedule: Q01DX009 (ip), vehicle: saline with Tween-80
[2] = dose: 100.0 mg/kg/injection, schedule: Q01DX009 (ip), vehicle: saline with Tween-80
[3] = dose: 100.0 mg/kg/injection, schedule: Q01DX009 (ip), vehicle: saline
[4] = dose: 50.0 mg/kg/injection, schedule: Q01DX005 (ip), vehicle: saline with Tween-80
[5] = dose: 100.0 mg/kg/injection, schedule: Q01DX005 (ip), vehicle: saline with Tween-80
[6] = dose: 200.0 mg/kg/injection, schedule: Q01DX005 (ip), vehicle: saline with Tween-80
[7] = dose: 50.0 mg/kg/injection, schedule: Q01DX009 (ip), vehicle: saline
[8] = dose: 200.0 mg/kg/injection, schedule: Q01DX009 (ip), vehicle: saline
[9] = dose: 50.0 mg/kg/injection, schedule: Q01DX009 (ip), vehicle: Klucel (hydroxypropylcellulose) (HPC)
[10] = dose: 100.0 mg/kg/injection, schedule: Q01DX009 (ip), vehicle: Klucel (hydroxypropylcellulose) (HPC)
[11] = dose: 200.0 mg/kg/injection, schedule: Q01DX009 (ip), vehicle: Klucel (hydroxypropylcellulose) (HPC)
[12] = dose: 200.0 mg/kg/injection, schedule: Q01DX009 (ip), vehicle: saline with Tween-80
[13] = dose: 6.25 mg/kg/injection, schedule: Q01DX005 (ip), vehicle: Klucel (hydroxypropylcellulose) (HPC)
[14] = dose: 12.5 mg/kg/injection, schedule: Q01DX005 (ip), vehicle: Klucel (hydroxypropylcellulose) (HPC)
[15] = dose: 25.0 mg/kg/injection, schedule: Q01DX005 (ip), vehicle: Klucel (hydroxypropylcellulose) (HPC)
[16] = dose: 50.0 mg/kg/injection, schedule: Q01DX005 (ip), vehicle: Klucel (hydroxypropylcellulose) (HPC)
[17] = dose: 400.0 mg/kg/injection, schedule: Q01DX009 (ip), vehicle: saline with Tween-80
[18] = dose: 100.0 mg/kg/injection, schedule: Q01DX005 (ip), vehicle: Klucel (hydroxypropylcellulose) (HPC)
[19] = dose: 200.0 mg/kg/injection, schedule: Q01DX005 (ip), vehicle: Klucel (hydroxypropylcellulose) (HPC)

Measured: T/C

c1ccc([C@H]2CN3CCSC3=N2)cc1
inactive: dose: 1.25 mg/kg/injection, schedule: Q01DX009 (ip), vehicle: saline 101 % of control | dose: 2.5 mg/kg/injection, schedule: Q01DX009 (ip), vehicle: saline 97 % of control | dose: 5.0 mg/kg/injection, schedule: Q01DX009 (ip), vehicle: saline 101 % of control | dose: 6.9 mg/kg/injection, schedule: Q01DX005 (ip), vehicle: saline 98 % of control | dose: 10.0 mg/kg/injection, schedule: Q01DX009 (ip), vehicle: saline 99 % of control | dose: 11.5 mg/kg/injection, schedule: Q01DX001 (ip), vehicle: saline 100 % of control and 109 % of control | dose: 11.5 mg/kg/injection, schedule: Q01DX005 (ip), vehicle: saline 103 % of control | dose: 19.2 mg/kg/injection, schedule: Q01DX001 (ip), vehicle: saline 99 % of control and 109 % of control | dose: 19.2 mg/kg/injection, schedule: Q01DX005 (ip), vehicle: saline 105 % of control | dose: 20.0 mg/kg/injection, schedule: Q01DX009 (ip), vehicle: saline 113 % of control | dose: 32.0 mg/kg/injection, schedule: Q01DX001 (ip), vehicle: saline 99 % of control

O=C(CC(=O)N1CCN(c2ccccc2)CC1)N1CCN(c2ccccc2)CC1
inactive: dose: 25.0 mg/kg/injection, schedule: Q01DX009 (ip), vehicle: saline with Tween-80 95 % of control | [1] 97 % of control | [2] 98 % of control | [3] 93 % of control

COc1cc(-c2cc(=O)c3c(O)cc(O)cc3o2)cc(OC)c1O
inactive: dose: 5.0 mg/kg/injection, schedule: Q01DX009 (ip), vehicle: Klucel (hydroxypropylcellulose) (HPC) 100 % of control | dose: 10.0 mg/kg/injection, schedule: Q01DX009 (ip), vehicle: Klucel (hydroxypropylcellulose) (HPC) 98 % of control | dose: 20.0 mg/kg/injection, schedule: Q01DX009 (ip), vehicle: Klucel (hydroxypropylcellulose) (HPC) 100 % of control | dose: 40.0 mg/kg/injection, schedule: Q01DX009 (ip), vehicle: Klucel (hydroxypropylcellulose) (HPC) 90 % of control

CCC(=O)c1ccc(OCC(O)COc2c3ccccc3nc3ccccc23)cc1 (centres undefined)
inactive: [4] 87 % of control | [5] 90 % of control | [6] 92 % of control

CC1CN2COC(=S)SSSSC(=S)OCN3CC(C)N(COC(=S)SSSSC(=S)OCN1CC2C)CC3C (centres undefined)
inactive: [4] 99 % of control | [5] 103 % of control | [6] 106 % of control

O=S1(=O)CC2(N3CCOCC3)CCCCC21 (centres undefined)
inactive: dose: 100.0 mg/kg/injection, schedule: Q04DX003 (ip), vehicle: saline with Tween-80 95 % of control | dose: 200.0 mg/kg/injection, schedule: Q04DX003 (ip), vehicle: saline with Tween-80 100 % of control | dose: 400.0 mg/kg/injection, schedule: Q04DX003 (ip), vehicle: saline with Tween-80 95 % of control

O=C(O)c1c[nH]c2cc(OCc3ccc(Br)cc3)ccc2c1=O
inactive: [7] 96 % of control | [3] 89 % of control | [8] 86 % of control

C=C1C(=O)OC2(C)CCCCC12 (centres undefined)
inactive: [9] 92 % of control | [10] 100 % of control | [11] 93 % of control

COC1/C=C/OC2(C)Oc3c(C)c(O)c4c(O)c(c(/C=N/N(C)c5ncnc6c5ncn6C5OC(CO)C(O)C5O)c(O)c4c3C2=O)NC(=O)C(C)=C/C=C/C(C)C(O)C(C)C(O)C(C)C(OC(C)=O)C1C (centres undefined)
inactive: [1] 100 % of control | [2] 102 % of control | [12] 102 % of control

CCN(c1ccccc1)c1nsc(Cl)n1
inactive: [1] 101 % of control | [2] 104 % of control | [12] 104 % of control

COc1c2occc2c(N=Cc2ccccn2)c2ccc(=O)oc12
inactive: [13] 97 % of control | [14] 97 % of control | [15] 95 % of control | [16] 90 % of control

COc1ccc2cc(O)ccc2c1
inactive: [2] 113 % of control | [12] 100 % of control | [17] 90 % of control

COc1ccc(C2OC(=O)CN2C(=O)c2ccccc2)cc1 (centres undefined)
inactive: [4] 107 % of control | [5] 95 % of control | [6] 90 % of control

CCC(=O)c1c(C)oc2ccc(O)cc12
inactive: dose: 25.0 mg/kg/injection, schedule: Q04DX002 (ip), vehicle: Klucel (hydroxypropylcellulose) (HPC) 94 % of control | dose: 50.0 mg/kg/injection, schedule: Q04DX002 (ip), vehicle: Klucel (hydroxypropylcellulose) (HPC) 89 % of control | dose: 100.0 mg/kg/injection, schedule: Q04DX002 (ip), vehicle: Klucel (hydroxypropylcellulose) (HPC) 91 % of control | dose: 200.0 mg/kg/injection, schedule: Q04DX002 (ip), vehicle: Klucel (hydroxypropylcellulose) (HPC) 90 % of control | dose: 400.0 mg/kg/injection, schedule: Q04DX002 (ip), vehicle: Klucel (hydroxypropylcellulose) (HPC) 90 % of control

O=[N+]([O-])c1ccc2c(c1)[S@@](=O)c1nc([N+](=O)[O-])cnc1N2
inactive: [16] 103 % of control | [18] 101 % of control

CC(C)N(C(C)C)P1N(C(C)(C)C)N=NN1C(C)(C)C
inactive: [14] 102 % of control | [15] 100 % of control | [16] 102 % of control and 107 % of control

CC1CCCN2C(=O)CN(c3ccccc3)CC(=O)N12 (centres undefined)
inactive: [4] 98 % of control | [5] 103 % of control | [6] 99 % of control

Oc1ccccc1/C=N/Nc1ccc2ccccc2n1
inactive: dose: 25.0 mg/kg/injection, schedule: Q04DX003 (ip), vehicle: saline 96 % of control | dose: 50.0 mg/kg/injection, schedule: Q04DX003 (ip), vehicle: saline 95 % of control | dose: 100.0 mg/kg/injection, schedule: Q04DX003 (ip), vehicle: saline 102 % of control | dose: 200.0 mg/kg/injection, schedule: Q04DX003 (ip), vehicle: saline 93 % of control

COc1ccc(N=C2C(=Nc3ccc(OC)cc3)N(S(=O)(=O)c3ccc(C)cc3)C(=S)N2c2ccccc2)cc1
inactive: dose: 50.0 mg/kg/injection, schedule: Q01DX005 (ip), vehicle: Klucel + Tween-80 100 % of control | dose: 100.0 mg/kg/injection, schedule: Q01DX005 (ip), vehicle: Klucel + Tween-80 98 % of control

c1ccc2c(c1)NC(NC1Nc3ccccc3N1)N2
inactive: dose: 30.0 mg/kg/injection, schedule: Q01DX005 (ip), vehicle: saline with Tween-80 91 % of control | dose: 60.0 mg/kg/injection, schedule: Q01DX005 (ip), vehicle: saline with Tween-80 86 % of control and 97 % of control

CC(=O)OCC(=O)[C@@]1(O)CC[C@H]2[C@@H]3C[C@H](C)C4=CC(=O)C=C[C@]4(C)[C@H]3[C@@H](O)C[C@@]21C
inactive: [2] 118 % of control | [12] 104 % of control | [17] 100 % of control

Cc1cc2nc3c(C4OCC(O)C4O)nn(-c4ccccc4)c3nc2cc1C (centres undefined)
inactive: dose: 3.12 mg/kg/injection, schedule: Q01DX005 (ip), vehicle: Klucel (hydroxypropylcellulose) (HPC) 93 % of control | [13] 88 % of control | [16] 88 % of control | [18] 93 % of control | [19] 103 % of control

Cc1ccccc1NC(=S)NC1C(=O)Nc2ccccc21 (centres undefined)
inactive: [4] 101 % of control | [5] 107 % of control | [6] 98 % of control

O=C(N1CCCCCC1)N1CC1
inactive: [9] 93 % of control | [10] 118 % of control

COc1c(N)c2c(c([N+](=O)[O-])c1OC)C(=O)OC2
inactive: [16] 103 % of control | [18] 93 % of control | [19] 97 % of control

O=S1(=O)CC(Cl)(Br)C1 (tested in a mixture with another compound)
inactive: dose: 12.5 mg/kg/injection, schedule: Q01DX009 (ip), vehicle: Klucel (hydroxypropylcellulose) (HPC) 96 % of control | dose: 25.0 mg/kg/injection, schedule: Q01DX009 (ip), vehicle: Klucel (hydroxypropylcellulose) (HPC) 93 % of control | [9] 100 % of control | [10] 96 % of control

CCCCCCCCCCCCCCCCOc1ccc(S(=O)(=O)N/N=c2/sc(-c3ccccc3Cl)nn2C)cc1C(=O)O
inactive: [7] 100 % of control | [3] 100 % of control | [8] 96 % of control

CC1(C)O[S+](c2ccccc2)c2ccccc21 (centres undefined)
inactive: [9] 102 % of control | [10] 107 % of control | [11] 108 % of control

O=C(O)CCCCCCCCC(=O)CCl
inactive: dose: 25.0 mg/kg/injection, schedule: Q01DX009 (ip), vehicle: saline 99 % of control | [7] 115 % of control
